According to ChEMBL document CHEMBL4376898, “Enhanced Activity against Multidrug-Resistant Bacteria through Coapplication of an Analogue of Tachyplesin I and an Inhibitor of the QseC/B Signaling Pathway” (J Med Chem, 2020):
Each block holds one molecule with its values, some of them ahead of it. Calls of active or inactive are those of the source. No cut-off for these calls is given here.

Legend:
Lysobacter enzymogenes [1] = experiment: Germicidal activity against Lysobacter enzymogenes YC36 at 5 to 10 pM; type: functional
Klebsiella pneumoniae [2] = experiment: Antimicrobial activity against Klebsiella pneumoniae BAA 1144 assessed as inhibition of visible growth incubated for 18 hrs; type: functional
Pseudomonas aeruginosa [3] = experiment: Antimicrobial activity against Pseudomonas aeruginosa ATCC 27853 assessed as inhibition of visible growth incubated for 18 hrs; type: functional
Klebsiella pneumoniae [4] = experiment: Antimicrobial activity against Klebsiella pneumoniae BAA 2470 assessed as inhibition of visible growth incubated for 18 hrs; type: functional
Enterococcus faecium = experiment: Antimicrobial activity against Enterococcus […] ATCC 29212 assessed as inhibition of visible growth incubated for 18 hrs; type: functional
Acinetobacter baumannii = experiment: Antimicrobial activity against Acinetobacter baumannii ATCC 19606 assessed as inhibition of visible growth incubated for 18 hrs; type: functional; details: ATCC 19606 = CIP 70.34 = JCM 6841
Bacillus subtilis = experiment: Antimicrobial activity against Bacillus subtilis 168 assessed as inhibition of visible growth incubated for 18 hrs; type: functional
Enterobacter cloacae = experiment: Antimicrobial activity against Enterobacter cloacae BAA 1143 assessed as inhibition of visible growth incubated for 18 hrs; type: functional
Escherichia coli [5] = experiment: Antimicrobial activity against Escherichia coli ATCC 25923 assessed as inhibition of visible growth incubated for 18 hrs; type: functional
Pseudomonas aeruginosa [6] = experiment: Antimicrobial activity against Pseudomonas aeruginosa BAA 2108 assessed as inhibition of visible growth incubated for 18 hrs; type: functional
Escherichia coli [7] = experiment: Antimicrobial activity against Escherichia coli K-12 assessed as inhibition of visible growth incubated for 18 hrs; type: functional
Escherichia coli [8] = experiment: Antimicrobial activity against Escherichia coli BAA 2469 assessed as inhibition of visible growth incubated for 18 hrs; type: functional
Staphylococcus aureus [9] = experiment: Antimicrobial activity against Staphylococcus aureus BAA 44 assessed as inhibition of visible growth incubated for 18 hrs; type: functional
Staphylococcus aureus [10] = experiment: Antimicrobial activity against Staphylococcus aureus ATCC 29213 assessed as inhibition of visible growth incubated for 18 hrs; type: functional
Staphylococcus aureus [11] = experiment: Antimicrobial activity against Staphylococcus aureus BAA 41 assessed as inhibition of visible growth incubated for 18 hrs; type: functional
Lysobacter enzymogenes [12] = experiment: Bactericidal activity against Lysobacter enzymogenes YC36 with delta qseC mutant; type: functional
Lysobacter enzymogenes [13] = experiment: Induction of drug efflux pumps gene expression in Lysobacter enzymogenes YC36 assessed as increase in yceL expression at 2 ug/ml by genome-wide transcription profiling assay; type: functional
Lysobacter enzymogenes [14] = experiment: Bactericidal activity against Lysobacter enzymogenes YC36 at 4 ug/ml; type: functional
Lysobacter enzymogenes [15] = experiment: Bactericidal activity against Lysobacter enzymogenes YC36 at 10 ug/ml; type: functional
Lysobacter enzymogenes [16] = experiment: Induction of drug efflux pumps gene expression in Lysobacter enzymogenes YC36 assessed as increase in nodT expression at 2 ug/ml by genome-wide transcription profiling assay; type: functional
Lysobacter enzymogenes [17] = experiment: Bactericidal activity against Lysobacter enzymogenes YC36 with delta qseB mutant; type: functional
Lysobacter enzymogenes [18] = experiment: Induction of drug efflux pumps gene expression in Lysobacter enzymogenes YC36 with delta qseB mutant at 2 ug/ml by genome-wide transcription profiling assay; type: functional
Lysobacter enzymogenes [19] = experiment: Induction of bacterial cell membrane leakage in Lysobacter enzymogenes YC36 assessed as induction of serious depressions with leakage of intracellular contents surrounding bacteria by atomic force microscopy; type: functional, cell-based
Lysobacter enzymogenes [20] = experiment: Induction of drug efflux pumps gene expression in Lysobacter enzymogenes YC36 assessed as increase in QseB expression at 2 ug/ml by genome-wide transcription profiling assay; type: functional
Lipid bilayer = experiment: Induction of membrane lysis in LUVs composed of Escherichia coli lipid extract filled with 5-carboxyfluorescein incubated in dark for 20 mins by fluorescence based assay
Lysobacter enzymogenes [21] = experiment: Induction of drug efflux pumps gene expression in Lysobacter enzymogenes YC36 assessed as increase in czcB expression at 2 ug/ml by genome-wide transcription profiling assay; type: functional
Lysobacter enzymogenes [22] = experiment: Antimicrobial activity against Lysobacter enzymogenes YC36 assessed as inhibition of visible growth incubated for 18 hrs; type: functional
Lysobacter enzymogenes [23] = experiment: Induction of drug efflux pumps gene expression in Lysobacter enzymogenes YC36 assessed as increase in ftsX expression at 2 ug/ml by genome-wide transcription profiling assay; type: functional
Lysobacter enzymogenes [24] = experiment: Induction of drug efflux pumps gene expression in Lysobacter enzymogenes YC36 assessed as increase in QseC expression at 2 ug/ml by genome-wide transcription profiling assay; type: functional
[25] = test system: Stenotrophomonas maltophilia; experiment: Bactericidal activity against Stenotrophomonas maltophilia at 2 ug/ml in presence of 5 pM QseC inhibitor LED209; type: functional, organism-based
[26] = test system: Pseudoalteromonas antarctica; experiment: Bactericidal activity against Pseudoalteromonas antarctica at 2 ug/ml in presence of 5 pM QseC inhibitor LED209; type: functional, organism-based
Lysobacter enzymogenes [27] = experiment: Bactericidal activity against Lysobacter enzymogenes YC36 at 2 ug/ml in presence of 5 pM QseC inhibitor LED209; type: functional

Molecule: O=S(=O)(Nc1ccccc1)c1ccc(NC(=S)Nc2ccccc2)cc1
Activity (Lysobacter enzymogenes [1]): inactive

MIC (Klebsiella pneumoniae [2]): 2 µg/mL
MIC (Pseudomonas aeruginosa [3]): 4 µg/mL
MIC (Klebsiella pneumoniae [4]): 2 µg/mL
MIC (Enterococcus faecium): > 128 µg/mL
MIC (Acinetobacter baumannii): 4 µg/mL
MIC (Bacillus subtilis): 16 µg/mL
MIC (Enterobacter cloacae): 4 µg/mL
MIC (Escherichia coli [5]): 2 µg/mL
MIC (Pseudomonas aeruginosa [6]): 4 µg/mL
MIC (Escherichia coli [7]): 2 µg/mL
MIC (Escherichia coli [8]): 2 µg/mL
MIC (Staphylococcus aureus [9]): > 128 µg/mL
MIC (Staphylococcus aureus [10]): > 128 µg/mL
MIC (Staphylococcus aureus [11]): > 128 µg/mL
Molecule: COLISTIN

Molecule: CC[C@H](C)[C@H]1NC(=O)CNC(=O)[C@@H](CCCNC(=N)N)NC(=O)[C@@H](Cc2ccc(O)cc2)NC(=O)[C@H]2CSSC[C@@H](NC1=O)C(=O)N[C@H](Cc1ccc(O)cc1)C(=O)N[C@H](CCCNC(=N)N)C(=O)N[C@H](CCCNC(=N)N)C(=O)N[C@@H](C(=O)N[C@H](CCCNC(=N)N)C(N)=O)CSSC[C@@H](NC(=O)[C@@H](Cc1c[nH]c3ccccc13)NC(=O)[C@H](N)CCCCN)C(=O)N[C@H](Cc1ccccc1)C(=O)N[C@H](CCCNC(=N)N)C(=O)N[C@H](C(C)C)C(=O)N2
Activity (Lysobacter enzymogenes [12]): Active
Activity (Lysobacter enzymogenes [13]): Active
Activity (Lysobacter enzymogenes [14]): Active
Activity (Lysobacter enzymogenes [15]): inactive
Activity (Lysobacter enzymogenes [16]): Active
Activity (Lysobacter enzymogenes [17]): Active
Activity (Lysobacter enzymogenes [18]): inactive
Activity (Lysobacter enzymogenes [19]): Active
Activity (Lysobacter enzymogenes [20]): Active
Activity (Lipid bilayer): Dose-dependent effect
Activity (Lysobacter enzymogenes [21]): Active
Activity (Lysobacter enzymogenes [22]): Dose-dependent effect
Activity (Lysobacter enzymogenes [23]): Active
Activity (Lysobacter enzymogenes [24]): Active
Activity [25]: Active
Activity [26]: Active
Activity (Lysobacter enzymogenes [27]): Active
